Holding throughout (assay): Phosphatase assay with ENDY(P)INASL as substrate
What all share (format): biochemical

In one assay the target is T1, TC.PTP (Homo sapiens, UniProt P17706).
T1 construct: made in house; host or cells: Sf9 cells (baculovirus)
T1 sequence (P17706 1-415): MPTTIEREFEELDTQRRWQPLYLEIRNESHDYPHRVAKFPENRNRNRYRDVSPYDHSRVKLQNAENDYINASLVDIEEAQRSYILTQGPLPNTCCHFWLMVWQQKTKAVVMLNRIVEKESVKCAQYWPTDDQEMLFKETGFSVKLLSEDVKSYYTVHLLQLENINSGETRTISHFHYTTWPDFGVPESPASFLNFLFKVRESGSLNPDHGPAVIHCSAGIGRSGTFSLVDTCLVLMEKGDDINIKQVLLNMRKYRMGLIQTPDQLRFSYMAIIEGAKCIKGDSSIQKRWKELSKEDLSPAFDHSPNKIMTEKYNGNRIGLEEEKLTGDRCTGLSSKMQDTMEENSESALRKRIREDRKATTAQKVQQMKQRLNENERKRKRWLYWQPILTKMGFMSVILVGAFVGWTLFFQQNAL
The following applies: TC.PTP. On the procedure: (§1) The tyrosine phosphatases TC.PTP, TCΔC11.PTP, and RPTPα were purified from infected Sf9 cells as described recently (Zander et al., Biochemistry 30: 6964-6970, 1991; Daum et al., J. Biol. Chem. 266: 12211-12215, 1991). The 37 kDa form of PTP1B and CD45 were purified from placenta and spleen, respectively (according to Tonks et al., J. Biol. Chem. 263: 6722-6730, 1988; Tonks et al., Biochemistry 27: 8695-8701, 1988).
(§2) Phosphatase assays with ENDY(P)INASL were performed in buffer M6. Aliquots of 30 μl or 60 μl containing the phosphopeptide, the phosphatase (-beads) and effectors were incubated for 10 minutes at 30° C. The reaction was stopped by adding 200 μl of a suspension of 10% activated, acid-washed Norit A charcoal (v/v) in 0.9N HCl, 0.1M pyrophosphate and 2 mM NaH2 PO4 (according to Streuli et al., Proc. Natl. Acad. Sci. USA 86: 8698-8702, 1989). The mixture was cleared by 10-minute centrifugation and the radioactivity of 150 μl of the supernate was determined. Assays with MBP and RCML were performed as described in Tonks et al., J. Biol. Chem. 263: 6722-6730, 1988. Protein concentration was determined with BSA as standard (Bradford, Anal. Biochem. 72: 248-254, 1976).

The next assay deals with T2, TCΔC11.PTP (Homo sapiens, UniProt P17706).
T2 construct: both the wild type and truncated forms of the T-cell phosphatase; made in house; host or cells: Sf9 cells (baculovirus)
T2 sequence (P17706 1-317 limits assumed): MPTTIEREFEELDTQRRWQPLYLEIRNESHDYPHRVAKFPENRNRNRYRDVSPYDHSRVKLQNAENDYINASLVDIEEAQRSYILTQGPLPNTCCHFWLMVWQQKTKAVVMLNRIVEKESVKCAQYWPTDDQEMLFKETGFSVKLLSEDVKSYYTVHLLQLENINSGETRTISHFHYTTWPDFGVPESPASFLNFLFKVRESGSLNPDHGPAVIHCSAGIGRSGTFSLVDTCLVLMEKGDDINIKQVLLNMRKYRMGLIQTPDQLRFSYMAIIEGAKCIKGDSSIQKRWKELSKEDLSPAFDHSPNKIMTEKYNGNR
On the procedure: as §1, §2

In the next assay the target is T3, CD45 (Homo sapiens, UniProt P08575).
T3 construct: CD45 were purified from placenta and spleen, respectively; from tissue; host or cells: spleen
T3 sequence (P08575 26-1306): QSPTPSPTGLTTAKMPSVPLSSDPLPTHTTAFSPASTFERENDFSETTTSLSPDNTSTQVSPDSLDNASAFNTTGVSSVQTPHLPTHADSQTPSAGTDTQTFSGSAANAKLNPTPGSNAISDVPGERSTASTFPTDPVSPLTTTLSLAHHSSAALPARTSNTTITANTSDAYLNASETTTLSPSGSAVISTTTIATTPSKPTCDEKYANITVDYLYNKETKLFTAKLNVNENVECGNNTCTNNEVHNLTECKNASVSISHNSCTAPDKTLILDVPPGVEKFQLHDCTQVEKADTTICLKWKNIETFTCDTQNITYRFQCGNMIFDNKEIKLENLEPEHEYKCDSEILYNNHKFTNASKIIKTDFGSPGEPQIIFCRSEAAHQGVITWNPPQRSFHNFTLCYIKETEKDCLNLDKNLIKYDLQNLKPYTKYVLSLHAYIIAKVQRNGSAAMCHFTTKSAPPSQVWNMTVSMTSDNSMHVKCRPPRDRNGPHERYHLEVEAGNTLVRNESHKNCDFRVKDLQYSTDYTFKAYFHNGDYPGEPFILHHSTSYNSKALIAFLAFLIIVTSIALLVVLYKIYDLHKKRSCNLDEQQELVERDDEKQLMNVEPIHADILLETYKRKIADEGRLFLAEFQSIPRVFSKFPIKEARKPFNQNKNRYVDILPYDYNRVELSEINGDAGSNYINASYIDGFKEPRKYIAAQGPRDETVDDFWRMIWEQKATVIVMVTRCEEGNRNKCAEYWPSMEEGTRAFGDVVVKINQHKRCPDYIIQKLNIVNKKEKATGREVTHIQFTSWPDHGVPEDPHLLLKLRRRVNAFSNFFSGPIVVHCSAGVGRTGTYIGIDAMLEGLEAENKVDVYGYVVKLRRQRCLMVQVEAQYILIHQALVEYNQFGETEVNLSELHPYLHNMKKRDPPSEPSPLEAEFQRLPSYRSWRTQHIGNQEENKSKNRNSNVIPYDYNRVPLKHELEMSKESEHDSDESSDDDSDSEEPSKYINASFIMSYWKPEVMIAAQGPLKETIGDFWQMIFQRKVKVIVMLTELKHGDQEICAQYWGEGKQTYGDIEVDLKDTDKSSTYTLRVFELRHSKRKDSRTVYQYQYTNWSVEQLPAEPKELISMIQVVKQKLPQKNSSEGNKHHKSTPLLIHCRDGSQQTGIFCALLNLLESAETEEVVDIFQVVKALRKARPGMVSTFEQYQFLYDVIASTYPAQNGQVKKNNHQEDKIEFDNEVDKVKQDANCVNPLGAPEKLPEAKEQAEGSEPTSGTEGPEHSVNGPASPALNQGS
On the procedure:
as §1, §2

The target of the next assay is T4, RPTPα (Homo sapiens, UniProt P18433).
T4 construct: made in house; host or cells: Sf9 cells (baculovirus)
As to the method: as §1, §2

In another assay the target is T5, PTP1B (Homo sapiens, UniProt P18031).
T5 construct: The 37 kDa form of PTP1B; from tissue; host or cells: placenta
T5 sequence (P18031 1-321 limits assumed): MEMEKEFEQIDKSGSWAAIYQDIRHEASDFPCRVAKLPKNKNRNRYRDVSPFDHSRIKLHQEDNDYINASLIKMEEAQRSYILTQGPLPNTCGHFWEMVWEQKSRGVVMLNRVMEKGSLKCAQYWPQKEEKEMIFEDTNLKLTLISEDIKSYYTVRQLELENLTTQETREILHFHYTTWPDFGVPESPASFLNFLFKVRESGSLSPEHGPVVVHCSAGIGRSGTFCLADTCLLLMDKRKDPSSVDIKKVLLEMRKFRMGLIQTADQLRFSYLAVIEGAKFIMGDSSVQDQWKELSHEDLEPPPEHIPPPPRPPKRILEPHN
On the procedure:
as §1, §2

T4 sequence (P18433 20-802): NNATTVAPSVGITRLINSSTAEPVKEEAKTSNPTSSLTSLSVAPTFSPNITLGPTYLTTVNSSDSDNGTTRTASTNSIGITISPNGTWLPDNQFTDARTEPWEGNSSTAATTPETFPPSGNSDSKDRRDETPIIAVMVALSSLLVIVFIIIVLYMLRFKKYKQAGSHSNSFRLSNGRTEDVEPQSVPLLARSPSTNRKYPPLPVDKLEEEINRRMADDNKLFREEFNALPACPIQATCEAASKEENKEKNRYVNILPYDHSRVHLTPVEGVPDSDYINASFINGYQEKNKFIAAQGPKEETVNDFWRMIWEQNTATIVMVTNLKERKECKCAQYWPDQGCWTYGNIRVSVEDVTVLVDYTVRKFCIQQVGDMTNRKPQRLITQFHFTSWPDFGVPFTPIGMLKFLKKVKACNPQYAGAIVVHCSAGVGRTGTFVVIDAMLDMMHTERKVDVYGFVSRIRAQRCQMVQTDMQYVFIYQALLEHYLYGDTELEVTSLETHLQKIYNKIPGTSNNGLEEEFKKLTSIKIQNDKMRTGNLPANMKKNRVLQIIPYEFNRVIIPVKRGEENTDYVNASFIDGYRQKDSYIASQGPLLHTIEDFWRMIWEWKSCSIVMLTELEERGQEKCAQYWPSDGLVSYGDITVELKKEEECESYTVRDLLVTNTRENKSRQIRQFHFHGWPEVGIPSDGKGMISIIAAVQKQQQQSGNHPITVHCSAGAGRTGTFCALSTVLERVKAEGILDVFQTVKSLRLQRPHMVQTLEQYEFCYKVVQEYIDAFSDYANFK

With heparin, the “Phosphatase activity in percent of the value obtained in the absence of effectors” value (from here on “Phosphatase activity in percent”) at TC.PTP (effector 0.01 μM) came to 8%; on TC.PTP (effector 0.1 μM), 1%; at TC.PTP (effector 1.0 μM), 0%; on TCΔC11.PTP (effector 0.01 μM) it was 88%; at TCΔC11.PTP (effector 0.1 μM), 4%; on TCΔC11.PTP (effector 1.0 μM), 0%. Besides, the “Phosphatase activity in percent” value was 8% at CD45 (effector 0.01 μM); 0% on CD45 (effector 0.1 μM); 0% at CD45 (effector 1.0 μM); 82% on RPTPα (effector 0.01 μM); 40% at RPTPα (effector 0.1 μM); 19% on RPTPα (effector 1.0 μM). Moreover, the figures for the “Phosphatase activity in percent” value at PTP1B (effector 0.01 μM), at PTP1B (effector 0.1 μM) and on PTP1B (effector 1.0 μM) were 91%, 0% and 0%, respectively.

The values above are taken from patent US5739278A, “Compositions for protein tyrosine phosphatases” (University of Washington, priority 1995, dated 1998).
